From patent US20080221114A1, “2-(Cyclic Aminocarbonyl) Indoline Derivative and Medicinal Composition Containing the Same” (priority 2005, published 2008)

What was measured:
[1] = system: mice (male ddY); assay: Social interaction test (antianxiety effect); type: in vivo, mouse; details: oral, 1 hour before test; statistically significant increase in social interaction time vs vehicle (Dunnett's test, 5%)
Description: The test is a behavioral pharmacological test wherein social interaction time which would arise between 2 animals (mice, rats or other) in a test apparatus is considered to be as an anxious indicator [see; File, S. E., J. Neurosci. Methods, 2, 219-238 (1980)]. It is known that a bright and unfamiliar test apparatus which is an aversive condition for mice or rats may suppress a social interaction of the animals and such suppressed social interaction may be restored by an antianxiety drug such as benzodiazepines.
A glass beaker which was inverted onto a frosted glass plate was brightly illuminated with a light source (ca. 1200 lux in the apparatus), and it was used as a test apparatus. Two mice (male ddY, 22-32 g) that were housed in separate home cages were orally treated with a test compound and returned to their home cages. One hour after the oral administration, the two mice were then placed together in the test apparatus, and the amount of time spent in social interaction by the two mice during a 15-minute period was recorded. The social interaction was defined as grooming and sniffing of the partner, genital investigation of the partner, climbing over or crawling under the partner. Four to five pairs (8 to 10 mice) were used per a group.
An antianxiety effect of the test compounds was presented as a minimum effective dose which indicated statistically significant increase in social interaction time as compared with a vehicle control group (Dunnett's test, Significance level: 5%).

[2] = system: male Std-Wistar rats; assay: Forced swimming test (antidepressant effect); type: in vivo, rat; details: 1 mg/kg orally 3 times (24 hours, 4 hours and 1 hour before the test); 6-minute period; vs vehicle, p<0.01
Description: An animal (mouse or rat) which is forced to swim in an inescapable water tank show an immobile posture, thought to reflect a state of behavioral despair, after an initial period of vigorous swimming activity. The forced swimming test, a behavioral despair model, is frequently used for evaluating antidepressant effect since a lot of antidepressants reduce the duration of immobility induced by forced swimming. The antidepressant effect of the compound of the present invention was evaluated in the forced swimming test based on the method of Porsolt R. D. et al. [see; Eur. J. Pharmacol., 47, 379-391 (1978)] with a minor modification.
In the test, a group of five male Std-Wistar rats, weighing 110-150 g, which were selected after training session was used. […]
The test compound (the compound of Example 40) was orally administered 3 times, i.e., 24 hours, 4 hours and 1 hour before the test. One hour after the final oral administration, the rats were put into the water and the immobile time observed during a 6-minute period was recorded. The effect shortening the immobile time in the test compound-treated group was evaluated using a Dunnett's multiple comparison test as compared with the vehicle control group.

[3] = molecular target: T1, mitochondrial benzodiazepine receptor (MBR) (Rattus norvegicus, UniProt P16257); assay: Binding assay of mitochondrial benzodiazepine receptor (MBR), [3H]4'-chlorodiazepam (Ro5-4864), rat kidney membrane-preparation; details: rat kidney membranes, [3H]4'-chlorodiazepam 0.5 nM, 0° C. for 150 minutes
T1 construct: from tissue; host or cells: kidney of male Wistar rats (crude membrane preparation)
Summary of the method: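 Kidney membranes from male Wistar rats were incubated with 0.5 nM [3H]Ro5-4864 in pH 7.4 sodium/potassium phosphate buffer with 100 mM NaCl for 150 min at 0 °C, then filtered. Nonspecific binding was defined with 50 μM diazepam. IC50 was obtained by nonlinear least-squares fitting of specific-binding inhibition.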

Q: With C[C@H]1CCCN(C(=O)[C@@H]2Cc3ccccc3N2c2ccc(=O)n(C)n2)C1 [Example 40, (S)-1-(1-methyl-6-oxo-1,6-dihydropyridazin-3-yl)-2-[[(S)-3-methylpiperidin-1-yl]carbonyl]indoline] as the compound, how does the Minimum effective dose [1] read?
A: The Minimum effective dose was 1 mg/kg.

Q: What about the melting point of the same compound?
A: Its melting point is 219 to 221 °C.

Q: What about the “shortening of the immobile time” value [2] of the same compound?
A: The value was 28%.

Q: And the IC50 [3]?
A: The IC50 was 6.05 nM.
